Experimental data published in patent publication US10875837B2, “Inhibitors of the fibroblast growth factor receptor” (BLUEPRINT MEDICINES CORPORATION, priority 2013, dated 2020).

Biological target: T1, wild type FGFR-4 (Homo sapiens, UniProt P22455)
T1 construct: purchased Carna Biosciences, Inc
Assay: FGFR-4 wild type assay at Km (Caliper electrophoretic mobility shift)
Format: biochemical
Settings: wild type FGFR-4, 400 uM ATP, 25 C, 90 minutes; read-out: INH-FGFR4
Method: Biochemical Activity Assessment In order to assess the activity of chemical compounds against the relevant kinase of interest, the Caliper LifeSciences electrophoretic mobility shift technology platform is utilized. Fluorescently labeled substrate peptide is incubated in the presence dosed levels of compounds, a set concentration of kinase and of ATP, so that a reflective proportion of the peptide is phosphorylated. At the end of the reaction, the mix of phosphorylated (product) and non-phosphorylated (substrate) peptides are passed through the microfluidic system of the Caliper LabChip® EZ Reader II, under an applied potential difference. The presence of the phosphate group on the product peptide provides a difference in mass and charge between the product peptide and the substrate peptide, resulting in a separation of the substrate and product pools in the sample. As the pools pass the LEDS within the instrument, these pools are detected and resolved as separate peaks. The ratio between these peaks therefore reflects the activity of the chemical matter at that concentration in that well, under those conditions.
FGFR-4 wild type assay at Km: In each well of a 384-well plate, 0.5 ng/ul of wild type FGFR-4 (Carna Biosciences, Inc.) was incubated in a total of 12.5 ul of buffer (100 mM HEPES pH 7.5, 0.015% Brij 35, 10 mM MgCl2, 1 mM DTT) with 1 uM CSKtide (5-FAM-KKKKEEIYFFFG-NH2) and 400 uM ATP at 25 C for 90 minutes in the presence or absence of a dosed concentration series of compound (1% DMSO final concentration). The reaction was stopped by the addition of 70 ul of Stop buffer (100 mM HEPES pH 7.5, 0.015% Brij 35, 35 mM EDTA and 0.2% of Coating Reagent 3 (Caliper Lifesciences)). The plate was then read on a Caliper LabChip® EZ Reader II (protocol settings: −1.9 psi, upstream voltage −700, downstream voltage −3000, post sample sip 35 s).

T1 sequence (P22455 22-802): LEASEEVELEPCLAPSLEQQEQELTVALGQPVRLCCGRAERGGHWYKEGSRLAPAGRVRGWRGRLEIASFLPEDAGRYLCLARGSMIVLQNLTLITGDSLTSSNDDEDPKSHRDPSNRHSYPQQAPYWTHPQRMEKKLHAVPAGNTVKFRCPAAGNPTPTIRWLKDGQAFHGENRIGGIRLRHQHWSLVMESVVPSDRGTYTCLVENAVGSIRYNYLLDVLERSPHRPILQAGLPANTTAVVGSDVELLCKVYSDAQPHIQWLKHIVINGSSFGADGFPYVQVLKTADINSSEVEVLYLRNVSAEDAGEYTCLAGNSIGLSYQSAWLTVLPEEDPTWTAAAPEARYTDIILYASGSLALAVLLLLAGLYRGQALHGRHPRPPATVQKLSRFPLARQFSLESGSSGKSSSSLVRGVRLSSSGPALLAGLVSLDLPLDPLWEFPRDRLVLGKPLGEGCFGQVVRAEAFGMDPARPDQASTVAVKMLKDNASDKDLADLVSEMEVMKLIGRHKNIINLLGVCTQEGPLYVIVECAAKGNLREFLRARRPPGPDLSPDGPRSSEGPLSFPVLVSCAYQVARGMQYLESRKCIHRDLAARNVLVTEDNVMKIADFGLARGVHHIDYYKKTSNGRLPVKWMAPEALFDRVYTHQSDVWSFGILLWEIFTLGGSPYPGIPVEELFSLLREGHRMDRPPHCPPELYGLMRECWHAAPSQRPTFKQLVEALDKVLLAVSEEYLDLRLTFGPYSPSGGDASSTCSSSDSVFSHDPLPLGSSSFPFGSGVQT

Row | SMILES | IC50 [nM]
1 | C#CC(=O)N[C@H]1CCC[C@H]1Nc1ncc2cc(-c3cc(C(=O)NOC)ccc3Cl)ccc2n1 [Compound 12] | < 10
2 | C=CC(=O)N[C@H]1COCC1Nc1ncc2cc(-c3cc(OC)cc(OC)c3Cl)ccc2n1 (stereo partly shown) [Compound 8] | 10 to 100
3 | C=CC(=O)N[C@H]1C[C@H](C(=O)N(C)C)CC[C@H]1Nc1ncc2cc(-c3c(Cl)c(OC)cc(OC)c3Cl)ccc2n1 (racemic) [Compound 87] | 100 to 1000
4 | C=CC(=O)N[C@H]1CCNC[C@H]1Nc1ncc2cc(-c3c(Cl)c(OC)cc(OC)c3Cl)ccc2n1 [Compound 38] | 100 to 1000
5 | C=CC(=O)N[C@@H]1CN(C(C)=O)C[C@@H]1Nc1ncc2cc(-c3c(Cl)c(OC)cc(OC)c3Cl)ccc2n1 [Compound 57] | 100 to 1000
6 | C=CC(=O)N[C@H]1CCN(C(C)=O)C[C@H]1Nc1ncc2cc(-c3c(Cl)c(OC)cc(OC)c3Cl)ccc2n1 [Compound 70] | 100 to 1000
7 | C=CC(=O)NC1CCC1Nc1ncc2cc(-c3c(Cl)c(OC)cc(OC)c3Cl)ccc2n1 (stereo not shown) [Compound 15] | 100 to 1000
8 | C#CC(=O)N[C@H]1CCC[C@H]1Nc1ncc2cc(-c3cc(OC)cc(C(=O)NCC)c3)ccc2n1 [Compound 10] | > 1000
9 | C#CC(=O)N[C@H]1CCC[C@H]1Nc1ncc2cc(-c3cc(C(N)=O)ccc3Cl)ccc2n1 [Compound 3] | 100 to 1000
10 | CC#CC(=O)N[C@H]1CCCC[C@H]1Nc1ncc2cc(-c3c(Cl)c(OC)cc(OC)c3Cl)ccc2n1 [Compound 47] | > 1000
11 | C#CC(=O)N[C@H]1CCC[C@H]1Nc1ncc2cc(-c3cc(C(=O)NC4CC4)c(F)cc3Cl)ccc2n1 [Compound 30] | 10 to 100
12 | C=CC(=O)N[C@H]1C[C@@H](C(=O)OC)C[C@H]1Nc1ncc2cc(-c3c(Cl)c(OC)cc(OC)c3Cl)ccc2n1 [Compound 73] | 10 to 100
13 | C#CC(=O)N[C@H]1CCC[C@H]1Nc1ncc2cc(-c3cc(C(=O)NC4CC4)ccc3C)ccc2n1 [Compound 7] | 10 to 100
14 | C=CC(=O)N[C@H]1C[C@@H](C(=O)N(C)C)C[C@H]1Nc1ncc2cc(-c3c(Cl)c(OC)cc(OC)c3Cl)ccc2n1 [Compound 81, (1 S,3S,4R)-3-acrylamido-4-((6-(2,6-dichloro-3,5-dimethoxyphenyl)quinazolin-2-yl)amino)-N,N-dimethylcyclopentanecarboxamide] | 10 to 100
15 | C=CC(=O)N[C@@H]1CCC[C@@H]1Nc1ncc2cc(-c3c(Cl)c(OC)cc(OC)c3Cl)ccc2n1 [Compound 23] | 100 to 1000
16 | C=CC(=O)N[C@H]1CCC[C@@H]1Nc1ncc2cc(-c3c(Cl)c(OC)cc(OC)c3Cl)ccc2n1 [Compound 22] | 100 to 1000
17 | C=CC(=O)N[C@@H]1CCC[C@H]1Nc1ncc2cc(-c3c(Cl)c(OC)cc(OC)c3Cl)ccc2n1 [Compound 21] | > 1000
18 | C=CS(=O)(=O)N[C@H]1CCCC[C@H]1Nc1ncc2cc(-c3c(Cl)c(OC)cc(OC)c3Cl)ccc2n1 [Compound 66] | 10 to 100
19 | C#CC(=O)N[C@H]1CCC[C@H]1Nc1ncc2cc(-c3c(Cl)ccc(OC)c3F)ccc2n1 [Compound 4] | 10 to 100
20 | C#CC(=O)N[C@H]1CCCC[C@H]1Nc1ncc2cc(-c3c(Cl)c(OC)cc(OC)c3Cl)ccc2n1 [Compound 31] | < 10
21 | C#CC(=O)N[C@H]1CCC[C@H]1Nc1ncc2cc(-c3c(Cl)ccc(OC)c3Cl)ccc2n1 [Compound 5] | 10 to 100
22 | C=CC(=O)N[C@H]1C[C@@H](O)C[C@H]1Nc1ncc2cc(-c3c(Cl)c(OC)cc(OC)c3Cl)ccc2n1 [Compound 42] | 10 to 100
23 | C=CC(=O)N[C@@H]1CC(C)(C)OC[C@@H]1Nc1ncc2cc(-c3c(Cl)c(OC)cc(OC)c3Cl)ccc2n1 [Compound 59] | 100 to 1000

Continued, values first:

Row | IC50 [nM] | SMILES
24 | > 1000 | C#CC(=O)N[C@H]1CCC[C@H]1Nc1ncc2cc(-c3cc(S(=O)(=O)N(C)C)ccc3C)ccc2n1 [Compound 18]
25 | > 1000 | C=CC(=O)N[C@@H]1CCNC[C@@H]1Nc1ncc2cc(-c3c(Cl)c(OC)cc(OC)c3Cl)ccc2n1 [Compound 39]
26 | 100 to 1000 | C#CC(=O)N[C@H]1Cc2ccccc2[C@H]1Nc1ncc2cc(-c3c(Cl)c(OC)cc(OC)c3Cl)ccc2n1 [Compound 65]
27 | 10 to 100 | C=CC(=O)NC1CN(C(C)=O)CCC1Nc1ncc2cc(-c3c(Cl)c(OC)cc(OC)c3Cl)ccc2n1 (stereo not shown) [Compound 71]
28 | 10 to 100 | C#CC(=O)N[C@H]1CCC[C@H]1Nc1ncc2cc(-c3cc(C(=O)NOC)c(F)cc3Cl)ccc2n1 [Compound 19]
29 | > 1000 | C=CC(=O)N[C@H]1C[C@H](C(=O)N(C)C)C[C@H]1Nc1ncc2cc(-c3c(Cl)c(OC)cc(OC)c3Cl)ccc2n1 [Compound 82, (1R,3S,4R)-3-acrylamido-4-((6-(2,6-dichloro-3,5-dimethoxyphenyl)quinazolin-2-yl)amino)-N,N-dimethylcyclopentane-1-carboxamide]
30 | 100 to 1000 | C=CC(=O)N[C@H]1CCCC[C@H]1Nc1ncc2nc(-c3c(Cl)c(OC)cc(OC)c3Cl)c(=O)n(CC)c2n1 [Compound 78]
31 | > 1000 | C=CC(=O)N[C@@H]1CCCC[C@H]1Nc1ncc2cc(-c3c(Cl)c(OC)cc(OC)c3Cl)ccc2n1 [Compound 37]
32 | > 1000 | C=CC(=O)N[C@@H]1CCCC[C@@H]1Nc1ncc2cc(-c3c(Cl)c(OC)cc(OC)c3Cl)ccc2n1 [Compound 35]
33 | < 10 | C#CC(=O)N[C@H]1CCC[C@H]1Nc1cc2c(cn1)cc(-c1c(Cl)c(OC)cc(OC)c1Cl)c(=O)n2C [Compound 49]
34 | < 10 | C#CC(=O)N[C@H]1CCC[C@H]1Nc1ncc2cc(-c3c(Cl)c(OC)cc(OC)c3Cl)ccc2n1 [Compound 20]
35 | > 1000 | C=CC(=O)N[C@H]1CCN(C(=O)OC(C)(C)C)C[C@H]1Nc1ncc2cc(-c3c(Cl)c(OC)cc(OC)c3Cl)ccc2n1 [Compound 92]
36 | 100 to 1000 | C=CC(=O)N[C@@H]1CCN(C(C)=O)C[C@@H]1Nc1ncc2cc(-c3c(Cl)c(OC)cc(OC)c3Cl)ccc2n1 [Compound 69]
37 | < 10 | C#CC(=O)N[C@H]1CCCC[C@H]1Nc1cc2c(cn1)cc(-c1c(Cl)c(OC)cc(OC)c1Cl)c(=O)n2CC [Compound 68]
38 | 100 to 1000 | C=CC(=O)N[C@H]1CC[C@H](C(N)=O)C[C@H]1Nc1ncc2cc(-c3c(Cl)c(OC)cc(OC)c3Cl)ccc2n1 (racemic) [Compound 72]
39 | 100 to 1000 | C#CC(=O)N[C@H]1CCC[C@H]1Nc1ncc2cc(-c3c(F)ccc(OCC)c3Cl)ccc2n1 [Compound 6, N-((1S,2R)-2-((6-(2-chloro-3-ethoxy-6-fluorophenyl)quinazolin-2-yl)amino)cyclopentyl)propiolamide]
40 | 100 to 1000 | C=CC(=O)N[C@H]1CCC[C@H]1Nc1ncc2cc(-c3cc(C(=O)NC4CC4)ccc3C)ccc2n1 [Compound 9]
41 | 100 to 1000 | C=CC(=O)N[C@@H]1CCOC[C@@H]1Nc1ncc2cc(-c3c(Cl)c(OC)cc(OC)c3Cl)ccc2n1 [Compound 43]
42 | > 1000 | CCC(=O)N[C@H]1CCC[C@H]1Nc1ncc2cc(-c3cc(C(=O)NC4CC4)ccc3Cl)ccc2n1 [Compound 17]
43 | > 1000 | C#CC(=O)N[C@H]1CCC[C@H]1Nc1ncc2cc(-c3cccnc3)ccc2n1 [Compound 1]
44 | < 10 | C=CC(=O)N[C@H]1CCOC[C@H]1Nc1ncc2cc(-c3c(Cl)c(OC)cc(OC)c3Cl)cc(Cl)c2n1 [Compound 67]
45 | 10 to 100 | C=CC(=O)N[C@H]1CCOC[C@H]1Nc1ncc2c(F)c(-c3c(Cl)c(OC)cc(OC)c3Cl)ccc2n1 [Compound 50]
46 | < 10 | C#CC(=O)N[C@H]1CCC[C@H]1Nc1ncc2cc(-c3c(Cl)c(OC)cc(OC)c3Cl)cc(OC)c2n1 [Compound 48]
